Source: the supplement of paper PMC8671470

How the values were obtained:
Assay in all cases: cell viability (% survival relative to DMSO control, bortezomib = 0%); higher = less cytotoxic
Details in all cases: 72 h
K-562 = tested on: K-562
How it was run: (§1)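 In 384-well plates pre-printed with compounds at 1, 10, 100, 1000 or 10000 nM, duplicate wells received cells from 10 AML and 5 CML lines at densities within the linear growth range. The plates stayed at 37 °C with 5% CO2 for 72 h before CellTiter-Glo luminescence was recorded. Each entry is averaged percent survival. Scaling placed vehicle at 100% and a 10 µM positive control at 0%.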

MOLM-13 = tested on: MOLM-13
How it was run: as §1

KU-812 = tested on: KU-812
How it was run: as §1

BV-173 = tested on: BV-173
How it was run: as §1

Row | Compound | cell viability (K-562; 1 nM) | cell viability (K-562; 10 nM) | cell viability (K-562; 100 nM) | cell viability (K-562; 1000 nM) | cell viability (K-562; 10000 nM) | cell viability (MOLM-13; 1 nM) | cell viability (MOLM-13; 10 nM) | cell viability (MOLM-13; 100 nM) | cell viability (MOLM-13; 1000 nM) | cell viability (MOLM-13; 10000 nM) | cell viability (KU-812; 1 nM) | cell viability (KU-812; 10 nM) | cell viability (KU-812; 100 nM) | cell viability (KU-812; 1000 nM) | cell viability (KU-812; 10000 nM) | cell viability (BV-173; 1 nM) | cell viability (BV-173; 10 nM) | cell viability (BV-173; 100 nM) | cell viability (BV-173; 1000 nM) | cell viability (BV-173; 10000 nM)
1 | Clc1ccc2c(c1Cl)CNCC2 | 103% | 97.7% | 95.4% | 107% | 88.7% | 102% | 125% | 70.3% | 92.3% | 83.7% | 99.9% | 92.5% | 94.4% | 118% | 87.8% | 95% | 95.9% | 103% | 107% | 83.6%
2 | O=C(O)C(S)=Cc1c[nH]c2ccc(F)cc12 | 91% | 95.7% | 90.1% | 116% | 85.9% | 95.9% | 103% | 99.9% | 107% | 77.3% | 102% | 103% | 101% | 112% | 102% | 97.4% | 98.1% | 85.1% | 97.7% | 88%
3 | CC(C)Cc1sc(N)nc1-c1ccc(P(=O)(O)O)o1 | 104% | 118% | 109% | 103% | 92.5% | 134% | 97% | 102% | 113% | 104% | 96.3% | 94.9% | 98.7% | 90.6% | 88.2% | 85.3% | 111% | 102% | 95.2% | 86.7%
4 | Cl.OC[C@H]1NC[C@@H](O)[C@@H](O)[C@@H]1O [1-Deoxymannojirimycin hydrochloride] | 93.7% | 70.4% | 104% | 103% | 91.6% | 115% | 88.3% | 96.3% | 104% | 105% | 101% | 89.2% | 95.7% | 98% | 98.1% | 111% | 83.1% | 96.9% | 103% | 102%
5 | CN(C)c1nc(O)c2[nH]cnc2n1 [2-Dimethylamino-6-hydroxypurine] | 108% | 89.2% | 92.2% | 117% | 92% | 96.1% | 65.7% | 104% | 91% | 66.9% | 93.8% | 96.7% | 91% | 94.2% | 103% | 104% | 93% | 93.5% | 121% | 93.9%
6 | O=C(O)c1cc2sccc2[nH]1 [4H-thieno[3,2-b]pyrrole-5-carboxylic acid] | 86.6% | 106% | 101% | 101% | 105% | 103% | 94.7% | 89.3% | 112% | 109% | 95.9% | 98.3% | 98.9% | 101% | 108% | 104% | 102% | 102% | 99.1% | 100%
7 | [N-]=[N+]=CC(=O)CC[C@H](N)C(=O)O [6-Diazo-5-oxo-L-norleucine] | 70.8% | 99.6% | 99.5% | 104% | 92.5% | 106% | 111% | 119% | 101% | 116% | 95% | 102% | 110% | 97.3% | 104% | 94.8% | 89.6% | 107% | 93.4% | 96.5%
8 | Sc1ncnc2nc[nH]c12 [6-mercaptopurine] | 110% | 88.9% | 102% | 39.9% | 8.69% | 117% | 87.6% | 108% | 53% | 16% | 98.9% | 100% | 93% | 59.3% | 54.4% | 103% | 93.8% | 86.8% | 38.8% | 12.3%
9 | O=C(O)CC[C@H](NC(=O)c1ccc([N+](=O)[O-])cc1)C(=O)O [(S)-2-(4-Nitrobenzamido)pentanedioic acid] | 76.6% | 91.8% | 84.6% | 102% | 110% | 89% | 124% | 94.6% | 98.5% | 105% | 91.6% | 100% | 98.7% | 96.9% | 89.8% | 96.2% | 108% | 92.8% | 104% | 80.7%
10 | O=C1Nc2ccccc2/C1=C\NCCc1ccc(O)c(O)c1 [AC1NZZMF] | 90.1% | 112% | 99.7% | 122% | 96.6% | 97.6% | 104% | 101% | 108% | 88.9% | 114% | 113% | 108% | 110% | 68.7% | 99.7% | 103% | 104% | 94.1% | 60.9%
11 | Cc1ccc(S(=O)(=O)NC2c3ccccc3Oc3ccccc32)cc1 [AH-7614] | 92% | 95.9% | 89.9% | 98.1% | 76.4% | 95.3% | 113% | 111% | 102% | 93.7% | 93.7% | 101% | 99.1% | 97.7% | 106% | 87.1% | 91.2% | 102% | 98.4% | 104%
12 | C[C@]12CC[C@H](O)CC1=CC[C@@H]1[C@@H]2CC[C@]2(C)C(c3cccnc3)=CC[C@@H]12 [Abiraterone] | 109% | 113% | 107% | 112% | 89.4% | 113% | 122% | 111% | 117% | 69.9% | 88.8% | 94.8% | 101% | 108% | 101% | 91.8% | 96.8% | 93.5% | 116% | 108%
13 | O=C(COc1ccc(C(=O)c2ccccc2)cc1)NC1CCN(Cc2ccccc2)CC1 [AdipoRon] | 90.2% | 105% | 79.7% | 104% | 58.3% | 94% | 106% | 93.6% | 105% | 76.5% | 94.6% | 114% | 90.9% | 98.3% | 41.5% | 84% | 105% | 96.7% | 87% | 52.9%
14 | CCOC(=O)[C@H]1O[C@@H]1C(=O)N[C@@H](CC(C)C)C(=O)NCCC(C)C [Aloxistatin] | 90.9% | 112% | 85.4% | 105% | 99.1% | 102% | 109% | 116% | 96.1% | 62.8% | 94% | 104% | 103% | 105% | 96.5% | 96.7% | 118% | 105% | 96.7% | 91.5%
15 | N[C@](CCCCB(O)O)(CCN1CCCCC1)C(=O)O [Arginase inhibitor 1] | 120% | 102% | 93.1% | 90.6% | 88.4% | 106% | 99.8% | 117% | 74.4% | 72% | 102% | 84.6% | 85.6% | 108% | 89.4% | 141% | 77% | 90.8% | 88.5% | 96.1%
16 | Cc1noc2c1-c1ccccc1C(c1ccc(Cl)cc1)=N[C@H]2CC(N)=O [CPI-0610] | 87.7% | 88.2% | 80.7% | 32.1% | 34.5% | 74.3% | 88.2% | 73.5% | 5.96% | 3.86% | 97.2% | 99.8% | 73.1% | 36% | 4.66% | 92.3% | 87.8% | 83.4% | 33.5% | 10.9%
17 | Nc1ccn([C@@H]2O[C@H](CO)[C@@H](O)[C@@H]2O)c(=O)n1 [Cytarabine] | 104% | 70% | 57.6% | 32.4% | 24.4% | 112% | 86.4% | 45.7% | 4.2% | 0.262% | 97% | 81.8% | 24.6% | 7.19% | 5.66% | 102% | 16.4% | 0.292% | -1.03% | 0.0249%
18 | CCOc1ccc(Cc2cc([C@@H]3O[C@H](CO)[C@@H](O)[C@H](O)[C@H]3O)ccc2Cl)cc1 [Dapagliflozin] | 98.9% | 108% | 81.4% | 101% | 94.6% | 92.8% | 111% | 91.1% | 103% | 121% | 85.7% | 96.5% | 90.5% | 106% | 81.3% | 74.5% | 106% | 87% | 98.2% | 82%
19 | CCN(CC)CCN(Cc1ccc(-c2ccc(C(F)(F)F)cc2)cc1)C(=O)Cn1c(SCc2ccc(F)cc2)nc(=O)c2c1CCC2 [Darapladib] | 99.1% | 122% | 81.6% | 73.6% | -0.273% | 123% | 94.6% | 88.2% | 83.8% | -0.315% | 110% | 93.6% | 100% | 80.7% | -0.56% | 100% | 88.7% | 94.3% | 79.1% | -0.184%
20 | O=C(O)C(Cl)Cl [Dichloroacetate] | 96.5% | 108% | 93% | 96.2% | 105% | 95.9% | 99.5% | 97.7% | 89.4% | 102% | 97.1% | 90.9% | 99% | 108% | 100% | 96.9% | 91% | 103% | 95.7% | 93.9%
21 | O=C1Oc2ccccc2C(=O)C1CC1C(=O)Oc2ccccc2C1=O (stereo not given) [Dicumarol] | 95.1% | 106% | 97.2% | 100% | 95.8% | 105% | 109% | 107% | 120% | 97.1% | 110% | 95.6% | 84.2% | 97.8% | 107% | 89.5% | 107% | 91.8% | 94.1% | 109%
22 | CC12CCC(O)CC1CCC1C2CCC2(C)C(C3=CC(=O)OC3)CCC12O (stereo not given) [Digitoxigenin] | 94.8% | 106% | 77.1% | 3.12% | -1.21% | 68.7% | 116% | 54.5% | 0.802% | -1.32% | 105% | 97.4% | 101% | 7.21% | 3.46% | 106% | 95.9% | 86.2% | 2.96% | -1.17%
23 | C[C@H]1O[C@@H](O[C@H]2[C@@H](O)C[C@H](O[C@H]3[C@@H](O)C[C@H](O[C@H]4CC[C@@]5(C)[C@H](CC[C@@H]6[C@@H]5C[C@@H](O)[C@]5(C)[C@@H](C7=CC(=O)OC7)CC[C@]65O)C4)O[C@@H]3C)O[C@@H]2C)C[C@H](O)[C@@H]1O [Digoxin] | 95.2% | 107% | 41.8% | -0.121% | 0.146% | 105% | 105% | 0.137% | -0.695% | 0.435% | 92.2% | 113% | 30.5% | 4.45% | 4.24% | 92.3% | 106% | 3.24% | -0.0612% | -0.063%
24 | O=c1c2ccccc2[se]n1-c1ccccc1 [Ebselen] | 96.6% | 102% | 91% | 90.5% | 72.3% | 104% | 97.9% | 108% | 92.5% | 115% | 94.5% | 104% | 89.5% | 99.4% | 87.8% | 90.5% | 101% | 84.4% | 106% | 83.8%
25 | Clc1ccc(COC(Cn2ccnc2)c2ccc(Cl)cc2Cl)cc1 (stereo not given) [Econazole] | 97.4% | 89.8% | 93.1% | 69% | 38.1% | 79.3% | 140% | 84.8% | 58.7% | 29.2% | 113% | 101% | 87.2% | 89.5% | 41.9% | 114% | 92.6% | 84.2% | 70.1% | 43.1%
26 | C#Cc1cnc(O)nc1O [Eniluracil] | 101% | 113% | 113% | 102% | 94.5% | 75.5% | 108% | 114% | 91.4% | 104% | 94.9% | 109% | 95.2% | 94.3% | 89.7% | 94.6% | 115% | 106% | 109% | 85.9%
